According to patent US4990538A, “Use of toremifene and its metabolites for the reversal of multidrug resistance of cancer cells against cytotoxic drugs” (priority 1989, dated 1991):
“Also recorded” adds a separate entry of the source.

Experiments:
in vitro [1] = conditions: hamster, cho-adr cells
Procedure: (§4) Initial cell growth studies were carried out to investigate the effect of combination toremifene +doxorubicin in doxorubicin sensitive and resistant cells. Cell cultures were carried out using wild type CHO-K1 cells as well as CHO-Adr cells, the latter being selected by a series of step-wise selections of doxorubicin resistant clones in presence of 0.4 ug/ml of doxorubicin. […] The resistant cells were stable in cell culture in the absence of doxorubicin. Both cell lines were cultivated in Hams F10 medium supplemented with 5% newborn calf serum, 5% foetal calf serum, antibiotics and 3mM glutamine. The cells were maintained as monolayer cultures 37° C. under 5% CO2. Drug sensitivity in CHO-K1and CHO-Adr cells was assessed by a semi-automated colorimetric MTT assay. The assay is dependent on the cellular reduction of MTT (3-U4,5-dimethylthiazol-2-ylA-2,5-diphenyl tertazolium bromide, thiazolyl blue) by the mitochondrial dehydrogenase of viable cells to a blue formazan product which was measured spectrophotometrically. The cells were seeded on 96-well plates and allowed to settle for 12 hours at 37° C. in 5% CO2. Appropriate drug concentrations diluted in growth medium were added for 24 hours. Toremifene was dissolved in 95% ethanol stock solution, doxorubicin stock solution was prepared in water. […] The cells were incubated with the drugs for 24 hours, after which the cells were washed twice with phosphate buffered saline before being placed in 200 μl fresh medium for a further 48 hours. At the end of this incubation 0.1 mg MTT was added to each well and incubated for 4 hours. The medium was carefully aspirated and the crystals were solubilised in 100 μ l DMSO (dimethyl sulfoxide). Absorbances at 540 nm were read immediately on an ELISA Multiskan reader. The results were expressed as a percentage of absorbance of drug treated cells compared to controls.
(§5) The effect of AAG in the concentration of 0.1 to 2 mg/ml was assessed on the potentiation produced by toremifene.

HOV-007 = test: Number of living cells (bioluminescence), ovarian cancer line HOV-007; conditions: doxorubicin 0 μg/ml, 3 days
Procedure: (§1) Two human ovarian cell lines were established in vitro from fresh serous ovarian cancer tissues. The lines are coded HOV-007 and HOV-018. The cells were cultivated in Eagle's MEM containing 1% unstripped foetal calf serum. The assays were carried out at 37° C. in 5% CO2 on 96 well plates.
presented. Number of cells was quantitated after 3 days'

MCF-7/DOX cells = test: Inhibition of cell growth / reversal of MDR in MCF-7/DOX cells (methylene blue); format: cell-based, human; conditions: for Inhibition of cell growth, Actual: 2880 min
Procedure: The cells were cultivated in 100 ul volumes in 96-well microtiter plates. The principle of the method was to cultivate cells in the presence of the drugs/ drug combinations for 48 hours. After this time the living cells were stained with methylene blue and quantitated spectrophotometrically using microtiter plate reader (Titertek Model MCC/340) interfaced to an Apple IIe computer. Inhibition of the cell growth is expressed as a percentage of absorbance of vehicle treated control cultures.

MCF-7/DOX = test: Sensitization of MCF-7/DOX by patients' plasma ultrafiltrate; format: cell-based, human; conditions: FIG. 8
Procedure: Cells were growth in Corning 75-cm^2 tissue flasks and were maintained in exponential growth using RPMI 1640 medium supplemented with 5% fetal bovine serum in 5% CO2 and 95% air. […] The cells were cultivated in 100 ul volumes in 96-well microtiter plates. The principle of the method was to cultivate cells in the presence of the drugs/ drug combinations for 48 hours. After this time the living cells were stained with methylene blue and quantitated spectrophotometrically using microtiter plate reader (Titertek Model MCC/340) interfaced to an Apple IIe computer. Inhibition of the cell growth is expressed as a percentage of absorbance of vehicle treated control cultures. Human plasma samples were obtained from patients participating clinical phase I studies receiving 10, 20, 40, 60, 200 or 400 mg toremifene daily for eight weeks. Ultrafiltrate from the plasma was prepared by placing plasma specimens in Amicon CF-10 filters (MW cutoff 10 000) followed by centrifugation at 5000×g for 20 minutes. The ultrafiltrates were used in order to study if the concentrations achieved clinically were able to sensitize MCF-7/DOX. Part of the growth medium was replaced by plasma ultrafiltrate and the cells were allowed to grow for 4 days, at which time they were stained and quantitated as described above.

in vitro [2] = conditions: hamster, cho-k1 cells
Procedure: as §4, §5

B-16 melanoma = test: Schedule dependency of antitumor effect in B-16 melanoma; conditions: toremifene 150 mg/kg p.o. days 1-5
Procedure: (§2) Lewis Lung (LL) or melanoma B-16 tumor cells, 2×10^6 cells/animal, were inoculated intramuscularly to female C-57 mice. Tumors were allowed to grow to the mean diameter of 1.5 cm after which toremifene/doxorubicin treatments were started as indicated in the next tables. Tumor size was measured before treatment and after 10 days in 2 dimensions and the mean was considered as tumor diameter. Weight of the animals was also recorded.

CHO-K1 cells [3] = test: Doxorubicin transport (accumulation) in CHO-K1 cells; format: cell-based; conditions: 2 μM toremifene; 1 μM doxorubicin; wild-type CHO-K1
HOV-018 = test: Number of living cells (bioluminescence), ovarian cancer line HOV-018; conditions: doxorubicin 0 μg/ml
Procedure: as §1

Ovarian ca. = conditions: subrenal capsule assay, all tumor types
Procedure: (§3) Pieces of fresh human tumors were implanted under the outer capsule of mouse kidney. Mice were treated with different combinations of cytotoxic drugs (doses preselected according to toxicity of each combination), with or without toremifene (150 mg/kg p.o.). Control animals received saline injections. The drugs were given on five consecutive days after the inoculation of the tumors. The sizes of the tumor pieces were measured by stereo microscope equipped with ocular micrometer immediately after inoculation (initial size) and on the sixth day when the animals were killed (final size). The difference final size - initial size describes the growth or regression of the tumor. The measuring unit was ocular micrometer unit (omu). 10 omu is identical to 1.0 mm. In addition to the tumor size, the weight gain of the animals was measured. The weight gain describes the toxicity of the treatment. In general, the ratio final weight/ pretest weight should be more than 0.80. Otherwise the toxicity is considered unacceptable.

[4] = mouse, in vivo
Procedure: as §3

[5] = tested on: α1 -acid glycoprotein (AAG); conditions: cited from earlier work
CHO-K1 cells [6] = test: MTT cell viability assay in wild-type CHO-K1 cells
Procedure: as §4, §5

[7] = cited from earlier work
Lewis Lung (LL) tumor = test: Schedule dependency of antitumor effect in Lewis Lung tumor; conditions: toremifene 150 mg/kg p.o. days 1-5
Procedure: as §2

CHO-Adr cells = test: MTT cell viability assay in doxorubicin resistant CHO-Adr cells
Procedure: as §4, §5

Human melanoma UV-me-1 = test: Toremifene and doxorubicin in human melanoma UV-me-1; conditions: doxorubicin 0 μg/ml, 2 days, control 100
[8] = drug 3.0 μg/ml +1 μM doxorubicin

CN(C)CCOc1ccc(/C(=C(/CCCl)c2ccccc2)c2ccccc2)cc1 [toremifene]
MCC at 24 h (in vitro [1]): > 10 µM | Number of living cells (HOV-007; toremifene 1.0 μM): 95% of control values | Number of living cells (HOV-007; toremifene 3.0 μM): 71% of control values | Number of living cells (HOV-007; toremifene 10.0 μM): 66% of control values | Effectiveness in reversing MDR (MCF-7/DOX cells; MCF-7/DOX cells, Table 5 and FIG. 7): almost equally effective | Inhibition of cell growth, Actual (MCF-7/DOX cells; [8]): 38 % control | Potential (potentiation of doxorubicin activity) (MCF-7/DOX cells; [8]): 58 % control | Inhibition of cell growth, Actual (MCF-7/DOX cells; drug […] +1 μM doxorubicin): 31 % control | Potential (potentiation of doxorubicin activity) (MCF-7/DOX cells; drug […] +1 μM doxorubicin): 48 % control | MDR reversing effect in patients' sera (MCF-7/DOX): A clear concentration-dependency | MCC at 24 h (in vitro [2]): > 10 µM | Change of tumor size (B-16 melanoma): +3.2 mm | Drug accumulation of doxorubicin (CHO-K1 cells [3]): enhanced drug accumulation | Number of living cells (HOV-018; toremifene 1.0 μM, 4320 min): 104% of control values | Number of living cells (HOV-018; toremifene 3.0 μM): 99% of control values | Number of living cells (HOV-018; toremifene 10.0 μM, 4320 min): 97% of control values | Sensitivity to cytotoxic drugs in human tumors (Ovarian ca.): can increase the sensitivity to cytotoxic drugs in human tumors | Effect of toremifene addition on weight gain [4]: not influenced by toremifene addition | Binding to α1-acid glycoprotein [5]: bound in some extent | Effect of AAG on toremifene toxicity (CHO-K1 cells [6]; AAG 2 mg/ml): protected both cell lines from toremifene toxicity | Effect of toremifene on doxorubicin toxicity at highest AAG level (CHO-K1 cells [6]; AAG 2 mg/ml): cell viability was no different from that when doxorubicin alone was present; also recorded: no longer any effect of toremifene on doxorubicin toxicity | AAG concentration above which potentiation by toremifene is gradually reversed (CHO-K1 cells [6]; doxorubicin + 10 μM toremifene): above 0.5 mg/ml | Potentiation of doxorubicin toxicity (CHO-K1 cells [6]; toremifene 1 to 10 μM): incremental potentiation of doxorubicin toxicity | Safety / toxicity in clinical use ([7]; at dose levels or concentrations required for MDR reversal): very safe drug | maximal tolerated dose ([7]; clinical phase I trials): 400 to 600 mg daily | Change of tumor diameter (Lewis Lung (LL) tumor): +5.4 mm | Potentiation of doxorubicin toxicity (CHO-Adr cells; CHO-Adr): the degree of potentiation was greater | Relative potentiation of doxorubicin toxicity, resistant vs wild-type (CHO-Adr cells; CHO-Adr vs CHO-K1, increasing concentrations of toremifene): far greater in the CHO-Adr cell line than in the parent cell line; also recorded: greater for the resistant than the wild-type cells | Effect of AAG on toremifene toxicity (CHO-Adr cells; CHO-Adr, AAG 2 mg/ml): protected both cell lines from toremifene toxicity | Effect of toremifene on doxorubicin toxicity at highest AAG level (CHO-Adr cells; CHO-Adr, AAG 2 mg/ml): cell viability was no different from that when doxorubicin alone was present; also recorded: no longer any effect of toremifene on doxorubicin toxicity | AAG concentration above which potentiation by toremifene is gradually reversed (CHO-Adr cells; CHO-Adr, doxorubicin + 10 μM toremifene): above 0.5 mg/ml | Increase of sensitivity to doxorubicin (CHO-Adr cells; CHO-K1 and CHO-Adr, toremifene concentrations not inhibiting cell growth on their own): can be increased by toremifene concentrations which do not inhibit cell growth on their own | Toremifene and doxorubicin in UV-me-1 (living cells) (Human melanoma UV-me-1; toremifene 0.5 μM): 97 | Toremifene and doxorubicin in UV-me-1 (living cells) (Human melanoma UV-me-1; toremifene 5.0 μM): 32
